Values of other authors in patent US10863739B2 (AgroFresh Inc., priority 2015, dated 2020).

Settings: gas

For CC1=CC1 [1-MCP, 1-Methylcyclopropene], the “flammable above a concentration” value is listed as > 13,300 ppm.
